Laboratory results taken from ChEMBL document CHEMBL4311992, “Discovery of 3-(((9H-purin-6-yl)amino)methyl)-4,6-dimethylpyridin-2(1H)-one derivatives as novel tubulin polymerization inhibitors for treatment of cancer” (Eur J Med Chem, 2019).
Active and inactive are the calls of the source. The calls are words filed in the database; no cut-off is given here.

Columns and labels:
[1] = test system: A549; assay: Antiproliferative activity against human A549 cells assessed as reduction in cell viability after 72 hrs by MTT assay; format: functional, cell-based; conditions: A549, 72 h
[2] = biological target: Serine/threonine-protein kinase SIK2 (Homo sapiens) (UniProt Q9H0K1); assay: Inhibition of human SIK2 (1 to 276 residues) using KKKVSRSGLYRSPSMPENLNRPR as substrate measured after 40 mins in presence of [gamma33P]ATP by scintillation counting method; design: scale not given: the % may be the effect or the level left
Chain of Serine/threonine-protein kinase SIK2 (Homo sapiens) (Q9H0K1 whole entry, looked up, the tested form may be a part): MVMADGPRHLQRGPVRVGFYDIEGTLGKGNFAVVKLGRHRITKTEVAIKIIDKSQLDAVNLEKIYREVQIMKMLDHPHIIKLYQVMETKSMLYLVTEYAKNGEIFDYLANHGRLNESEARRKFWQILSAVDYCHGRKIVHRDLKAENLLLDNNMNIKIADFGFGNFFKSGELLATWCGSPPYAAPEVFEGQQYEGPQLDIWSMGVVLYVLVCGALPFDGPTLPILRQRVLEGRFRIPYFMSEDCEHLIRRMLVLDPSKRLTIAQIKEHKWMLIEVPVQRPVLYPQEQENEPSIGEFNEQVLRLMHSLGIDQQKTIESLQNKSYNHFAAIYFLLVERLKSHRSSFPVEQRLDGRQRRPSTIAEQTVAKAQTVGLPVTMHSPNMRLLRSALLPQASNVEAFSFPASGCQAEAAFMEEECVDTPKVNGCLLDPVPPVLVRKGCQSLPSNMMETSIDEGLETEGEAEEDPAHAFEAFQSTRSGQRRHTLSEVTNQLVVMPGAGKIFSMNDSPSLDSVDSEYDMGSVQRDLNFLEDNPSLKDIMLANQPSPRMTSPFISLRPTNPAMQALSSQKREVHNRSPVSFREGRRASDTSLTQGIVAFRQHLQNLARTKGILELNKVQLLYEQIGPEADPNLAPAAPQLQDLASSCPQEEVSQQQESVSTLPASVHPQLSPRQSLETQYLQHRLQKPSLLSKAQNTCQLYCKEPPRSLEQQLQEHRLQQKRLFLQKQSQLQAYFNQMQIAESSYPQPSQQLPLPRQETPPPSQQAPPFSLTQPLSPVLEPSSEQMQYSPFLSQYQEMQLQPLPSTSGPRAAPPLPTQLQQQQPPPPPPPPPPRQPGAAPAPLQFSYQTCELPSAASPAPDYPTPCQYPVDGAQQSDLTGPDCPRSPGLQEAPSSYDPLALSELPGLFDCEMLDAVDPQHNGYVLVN

[3] = biological target: cGMP-dependent protein kinase 1 (Homo sapiens) (UniProt Q13976); assay: Inhibition of recombinant full-length human PKG1alpha assessed as residual activity at 10 uM using RRRLSFAEPG as substrate measured after 40 mins in presence of [gamma33P]ATP by scintillation counting method
Chain of cGMP-dependent protein kinase 1 (Homo sapiens) (Q13976 whole entry): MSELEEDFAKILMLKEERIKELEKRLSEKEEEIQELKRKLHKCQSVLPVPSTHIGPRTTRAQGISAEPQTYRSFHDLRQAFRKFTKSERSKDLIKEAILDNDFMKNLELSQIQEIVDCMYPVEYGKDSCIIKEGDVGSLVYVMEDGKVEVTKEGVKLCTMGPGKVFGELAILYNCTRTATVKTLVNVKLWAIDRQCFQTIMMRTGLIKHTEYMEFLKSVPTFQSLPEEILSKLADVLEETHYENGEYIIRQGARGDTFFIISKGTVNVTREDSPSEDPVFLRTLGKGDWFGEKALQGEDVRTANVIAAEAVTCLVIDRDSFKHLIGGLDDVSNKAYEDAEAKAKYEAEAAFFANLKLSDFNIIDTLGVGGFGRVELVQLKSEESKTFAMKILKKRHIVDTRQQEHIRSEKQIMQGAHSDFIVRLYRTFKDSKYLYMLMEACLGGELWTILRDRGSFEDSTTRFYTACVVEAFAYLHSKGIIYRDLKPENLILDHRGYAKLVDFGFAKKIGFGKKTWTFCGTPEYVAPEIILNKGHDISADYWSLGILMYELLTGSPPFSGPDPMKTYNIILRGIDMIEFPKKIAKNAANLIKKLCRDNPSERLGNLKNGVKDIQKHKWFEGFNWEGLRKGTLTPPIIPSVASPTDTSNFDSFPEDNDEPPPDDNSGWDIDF

[4] = biological target: Protein kinase C iota type (Homo sapiens) (UniProt P41743); assay: Inhibition of recombinant full-length human PKCiota assessed as residual activity at 10 uM using ERMRPRKRQGSVRRRV as substrate measured after 40 mins in presence of [gamma33P]ATP by scintillation counting method
Chain of Protein kinase C iota type (Homo sapiens) (P41743 whole entry): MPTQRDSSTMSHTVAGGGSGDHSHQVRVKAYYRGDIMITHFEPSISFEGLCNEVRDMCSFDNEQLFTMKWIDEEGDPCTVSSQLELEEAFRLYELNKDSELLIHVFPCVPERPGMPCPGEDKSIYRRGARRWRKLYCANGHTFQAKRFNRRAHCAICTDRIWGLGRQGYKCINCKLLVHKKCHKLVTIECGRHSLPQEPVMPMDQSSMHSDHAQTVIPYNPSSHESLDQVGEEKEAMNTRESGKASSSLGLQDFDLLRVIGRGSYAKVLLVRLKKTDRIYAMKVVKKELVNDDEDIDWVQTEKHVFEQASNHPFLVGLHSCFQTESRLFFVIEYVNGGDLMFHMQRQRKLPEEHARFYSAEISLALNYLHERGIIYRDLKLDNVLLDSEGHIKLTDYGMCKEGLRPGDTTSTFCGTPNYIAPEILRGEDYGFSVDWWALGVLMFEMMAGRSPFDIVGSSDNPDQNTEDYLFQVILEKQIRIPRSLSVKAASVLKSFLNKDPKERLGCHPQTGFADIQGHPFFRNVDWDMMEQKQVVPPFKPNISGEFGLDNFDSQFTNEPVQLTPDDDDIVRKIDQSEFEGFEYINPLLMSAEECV

[5] = biological target: Serine/threonine-protein kinase Nek6 (Homo sapiens) (UniProt Q9HC98); assay: Inhibition of recombinant human NEK6 (2 to end residues) assessed as residual activity at 10 uM using FLAKSFGSPNRAYKK as substrate measured after 40 mins in presence of [gamma33P]ATP by scintillation counting method
Chain of Serine/threonine-protein kinase Nek6 (Homo sapiens) (Q9HC98 whole entry, the tested form may be a part): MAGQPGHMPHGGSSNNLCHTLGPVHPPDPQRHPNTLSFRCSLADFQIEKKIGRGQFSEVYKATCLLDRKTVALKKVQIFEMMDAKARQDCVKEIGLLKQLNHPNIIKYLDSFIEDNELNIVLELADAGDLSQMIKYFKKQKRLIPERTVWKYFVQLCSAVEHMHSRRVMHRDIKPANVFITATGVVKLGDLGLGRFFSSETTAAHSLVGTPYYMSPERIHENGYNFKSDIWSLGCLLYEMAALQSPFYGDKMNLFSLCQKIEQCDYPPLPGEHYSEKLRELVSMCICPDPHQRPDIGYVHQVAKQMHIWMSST

[6] = biological target: Misshapen-like kinase 1 (Homo sapiens) (UniProt Q8N4C8); assay: Inhibition of recombinant human MINK (1 to 310 residues) assessed as residual activity at 10 uM using myelin basic protein as substrate measured after 40 mins in presence of [gamma33P]ATP by scintillation counting method
[7] = biological target: Transient receptor potential cation channel subfamily M member 7 (Homo sapiens) (UniProt Q96QT4); assay: Inhibition of recombinant human CHAK1 (1180 to end residues) assessed as residual activity at 10 uM using myelin basic protein as substrate measured after 40 mins in presence of [gamma33P]ATP by scintillation counting method
Chain of Transient receptor potential cation channel subfamily M member 7 (Homo sapiens) (Q96QT4 whole entry): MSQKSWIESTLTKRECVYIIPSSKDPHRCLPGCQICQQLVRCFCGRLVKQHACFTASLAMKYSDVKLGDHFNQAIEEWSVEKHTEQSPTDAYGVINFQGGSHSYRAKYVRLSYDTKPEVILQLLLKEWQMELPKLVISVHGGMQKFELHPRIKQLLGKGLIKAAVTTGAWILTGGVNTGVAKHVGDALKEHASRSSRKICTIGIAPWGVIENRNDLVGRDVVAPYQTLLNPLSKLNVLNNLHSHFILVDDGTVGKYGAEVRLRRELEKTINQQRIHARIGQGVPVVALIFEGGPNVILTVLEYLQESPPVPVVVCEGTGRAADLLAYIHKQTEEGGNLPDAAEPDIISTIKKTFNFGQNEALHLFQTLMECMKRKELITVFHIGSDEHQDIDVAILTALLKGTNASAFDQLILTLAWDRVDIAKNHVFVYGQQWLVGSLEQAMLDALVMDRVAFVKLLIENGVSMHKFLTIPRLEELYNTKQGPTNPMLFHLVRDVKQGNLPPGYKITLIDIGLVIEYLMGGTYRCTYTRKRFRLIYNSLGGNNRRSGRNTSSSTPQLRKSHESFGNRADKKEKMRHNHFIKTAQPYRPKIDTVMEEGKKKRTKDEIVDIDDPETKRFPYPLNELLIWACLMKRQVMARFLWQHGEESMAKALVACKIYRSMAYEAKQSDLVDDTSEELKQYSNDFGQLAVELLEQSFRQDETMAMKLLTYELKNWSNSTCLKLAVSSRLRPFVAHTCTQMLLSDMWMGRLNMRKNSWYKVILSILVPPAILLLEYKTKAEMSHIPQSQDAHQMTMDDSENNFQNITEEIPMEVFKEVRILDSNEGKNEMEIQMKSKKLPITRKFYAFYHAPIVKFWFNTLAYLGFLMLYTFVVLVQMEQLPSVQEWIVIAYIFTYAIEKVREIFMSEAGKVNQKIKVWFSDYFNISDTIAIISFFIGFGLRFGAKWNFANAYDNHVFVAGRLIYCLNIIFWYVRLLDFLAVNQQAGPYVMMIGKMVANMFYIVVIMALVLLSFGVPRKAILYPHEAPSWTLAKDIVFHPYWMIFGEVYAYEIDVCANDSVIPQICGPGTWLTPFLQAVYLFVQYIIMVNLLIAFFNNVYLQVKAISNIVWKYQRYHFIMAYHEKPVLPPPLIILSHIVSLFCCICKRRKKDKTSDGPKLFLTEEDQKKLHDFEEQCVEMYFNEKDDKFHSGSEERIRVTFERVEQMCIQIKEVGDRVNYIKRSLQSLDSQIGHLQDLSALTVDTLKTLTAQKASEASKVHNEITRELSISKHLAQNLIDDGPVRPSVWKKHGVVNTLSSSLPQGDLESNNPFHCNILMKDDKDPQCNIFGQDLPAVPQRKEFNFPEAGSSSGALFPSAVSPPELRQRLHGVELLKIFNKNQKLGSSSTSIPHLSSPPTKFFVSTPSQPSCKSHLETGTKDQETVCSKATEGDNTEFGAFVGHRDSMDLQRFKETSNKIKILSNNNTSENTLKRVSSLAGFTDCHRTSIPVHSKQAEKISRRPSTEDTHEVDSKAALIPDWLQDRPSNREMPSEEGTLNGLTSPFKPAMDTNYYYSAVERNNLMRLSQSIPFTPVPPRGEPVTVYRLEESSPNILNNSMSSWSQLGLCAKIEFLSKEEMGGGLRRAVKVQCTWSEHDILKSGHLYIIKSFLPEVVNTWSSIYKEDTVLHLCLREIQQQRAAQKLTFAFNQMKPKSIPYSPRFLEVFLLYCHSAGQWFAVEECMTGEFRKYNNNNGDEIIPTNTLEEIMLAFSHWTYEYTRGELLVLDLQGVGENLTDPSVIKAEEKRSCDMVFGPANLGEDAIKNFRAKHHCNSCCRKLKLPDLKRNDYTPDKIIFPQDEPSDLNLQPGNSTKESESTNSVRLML

[8] = biological target: NUAK family SNF1-like kinase 1 (Homo sapiens) (UniProt O60285); assay: Inhibition of recombinant human ARK5 (2 to end residues) assessed as residual activity at 10 uM using KKKVSRSGLYRSPSMPENLNRPR as substrate measured after 40 mins in presence of [gamma33P]ATP by scintillation counting method
Chain of NUAK family SNF1-like kinase 1 (Homo sapiens) (O60285 whole entry): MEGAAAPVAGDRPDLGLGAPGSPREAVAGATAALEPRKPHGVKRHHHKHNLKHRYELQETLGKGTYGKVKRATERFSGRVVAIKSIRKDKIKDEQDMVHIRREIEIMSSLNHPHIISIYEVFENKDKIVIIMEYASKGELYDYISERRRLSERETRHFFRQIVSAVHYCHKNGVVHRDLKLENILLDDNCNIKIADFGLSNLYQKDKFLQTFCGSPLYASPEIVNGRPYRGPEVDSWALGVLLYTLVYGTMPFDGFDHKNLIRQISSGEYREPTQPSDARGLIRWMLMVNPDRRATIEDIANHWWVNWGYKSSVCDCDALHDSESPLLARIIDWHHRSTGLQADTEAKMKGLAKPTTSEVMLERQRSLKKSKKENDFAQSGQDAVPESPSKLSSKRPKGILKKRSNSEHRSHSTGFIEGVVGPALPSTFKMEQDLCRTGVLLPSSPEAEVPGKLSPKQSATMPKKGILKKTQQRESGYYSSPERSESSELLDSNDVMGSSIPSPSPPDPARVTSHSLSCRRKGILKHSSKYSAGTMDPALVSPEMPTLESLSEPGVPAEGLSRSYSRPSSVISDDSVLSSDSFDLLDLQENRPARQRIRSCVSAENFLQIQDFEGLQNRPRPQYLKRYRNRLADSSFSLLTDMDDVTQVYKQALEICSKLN

[9] = test system: Tyrosine-protein kinase BTK (Homo sapiens), Q06187 [R28H]; assay: Inhibition of full-length recombinant human BTK R28H mutant assessed as residual activity at 10 uM using LSNLYHQGKFLQTFCGSPLYRRR as substrate measured after 40 mins in presence of [gamma33P]ATP by scintillation counting method
[10] = biological target: Fibroblast growth factor receptor 4 (Homo sapiens) (UniProt P22455); assay: Inhibition of recombinant human FGFR4 (442 to 755 residues) assessed as residual activity at 10 uM using poly(Glu, Tyr) 4:1 as substrate measured after 40 mins in presence of [gamma33P]ATP by scintillation counting method
[11] = biological target: Ephrin type-B receptor 3 (Homo sapiens) (UniProt P54753); assay: Inhibition of recombinant human EphB3 (599 to 920 residues) assessed as residual activity at 10 uM using poly (Glu, Tyr) 4:1 as substrate measured after 40 mins in presence of [gamma33P]ATP by scintillation counting method
[12] = biological target: Tyrosine-protein kinase CSK (Homo sapiens) (UniProt P41240); assay: Inhibition of full-length recombinant human CSK assessed as residual activity at 10 uM using poly(Glu, Tyr) 4:1 as substrate measured after 40 mins in presence of [gamma33P]ATP by scintillation counting method
[13] = test system: Mast/stem cell growth factor receptor Kit (Homo sapiens), P10721 [D816H]; assay: Inhibition of recombinant human c-Kit D816H mutant (544 to end residues) assessed as residual activity at 10 uM using GGMEDIYFEFMGGKKK as substrate measured after 40 mins in presence of [gamma33P]ATP by scintillation counting method
[14] = test system: HCT-116; assay: Cell cycle arrest in human HCT116 cells assessed as up regulation of CyclinB1 expression up to 150 nM after 24 hrs by Western blot analysis; format: functional, cell-based
[15] = test system: SW-620; assay: Cell cycle arrest in human SW620 cells assessed as up regulation of cdc25 expression up to 150 nM after 24 hrs by Western blot analysis; format: functional, cell-based
[16] = Hepatotoxicity in nude BALB/c mouse at 80 mg/kg, po administered once daily for 4 weeks measured post-last dose by hematoxylin and eosin staining-based assay; format: toxicity, organism-based; conditions: in vivo, 672 h
[17] = test system: Serine/threonine-protein kinase Chk2 (Homo sapiens), O96017 [R145W]; assay: Inhibition of recombinant human CHK2 R145W mutant (5 to end residues) assessed as residual activity at 10 uM using KKKVSRSGLYRSPSMPENLNRPR as substrate measured after 40 mins in presence of [gamma33P]ATP by scintillation counting method
[18] = biological target: Rhodopsin kinase GRK7 (Homo sapiens) (UniProt Q8WTQ7); assay: Inhibition of recombinant full-length human GRK7 assessed as residual activity at 10 uM using casein as substrate measured after 40 mins in presence of [gamma33P]ATP by scintillation counting method
[19] = biological target: LIM domain kinase 2 (Homo sapiens) (UniProt P53671); assay: Inhibition of recombinant human LIMK2 assessed as residual activity at 10 uM by radiometric method
[20] = biological target: Mitogen-activated protein kinase kinase kinase 11 (Homo sapiens) (UniProt Q16584); assay: Inhibition of human MLK3 assessed as residual activity at 10 uM by radiometric method
[21] = biological target: Serine/threonine-protein kinase MRCK alpha (Homo sapiens) (UniProt Q5VT25); assay: Inhibition of recombinant human MRCKalpha (1 to 473 residues) assessed as residual activity at 10 uM using KKRNRTLTV as substrate measured after 40 mins in presence of [gamma33P]ATP by scintillation counting method
[22] = biological target: Serine/threonine-protein kinase 4 (Homo sapiens) (UniProt Q13043); assay: Inhibition of recombinant full-length human MST1 assessed as residual activity at 10 uM using KKSRGDYMTMQIG as substrate measured after 40 mins in presence of [gamma33P]ATP by scintillation counting method
[23] = biological target: Platelet-derived growth factor receptor beta (Homo sapiens) (UniProt P09619); assay: Inhibition of recombinant human PDGFRbeta (557 to end residues) assessed as residual activity at 10 uM using poly(Glu, Tyr) 4:1 as substrate measured after 40 mins in presence of [gamma33P]ATP by scintillation counting method
[24] = test system: SW-620; assay: Induction of apoptosis in human SW620 cells assessed as viable cells at 50 nM measured after 48 hrs by Annexin V-FITC/propidium iodide staining-based flow cytometry (reference value: 94.7%); format: functional; conditions: SW-620, 48 h, read-out: Activity
[25] = test system: A549; assay: cells; conditions: Homo sapiens, A549, 72 h
Description: Antiproliferative activity against human A549 cells after 72 hrs by MTT assay

Cc1cc(C)c(CNc2nc(Cl)nc3c2ncn3C2CCCC2)c(=O)[nH]1
IC50 [1]: 98 nM
Activity [2]: 97%
Activity [3]: 99.5%
Activity [4]: 105%
Activity [5]: 108%
Activity [6]: 94%
Activity [7]: 108%
Activity [8]: 108%
Activity [9]: 98%
Activity [10]: 100%
Activity [11]: 110%
Activity [12]: 98%
Activity [13]: 101%
Activity [14]: Active
Activity [15]: Active
Activity [16]: Non-Toxic
Activity [17]: 103%
Activity [18]: 102%
Activity [19]: 106%
Activity [20]: 104%
Activity [21]: 110%
Activity [22]: 122%
Activity [23]: 117%
viability at 0.05 µM [24]: 83.4%
IC50 [25]: 100 nM
